Test results: patent US20050171215A1, “Germicidal compositions containing halogenated phthalaldehyes, and methods of using such compositions for disinfection or sterilization” (Ethicon, Inc., priority 2004, published 2005)
Read-outs that look alike come from different tables or passages of the source.

What was measured:
[1] = tested on: Mycobacterium terrae bacteria; test: bacterial suspension test; format: cell-based; details: for Germicidal Efficacy: summary Table 14
Protocol: In Examples 1 to 3, which follow, several germicidal solutions containing either the 4-fluoro-, 4-chloro-, or 4-bromo-phthalaldehyde compound were tested to determine their effectiveness in killing at least 1×10^6/mL of Mycobacterium terrae bacteria using a bacterial suspension test. The bacterial suspension test that was employed is described in Section VII.
The solutions were prepared by adding the appropriate amounts of the germicidal compounds to an aqueous solution. Unless otherwise mentioned all concentrations reported herein are expressed in (w/v)%. The pH of the solution was not adjusted. The tests were conducted at a temperature of about 20° C. (room temperature). The results are presented in terms of log reductions/mL. It is understood that these examples, as well as the other examples herein, are to be construed as merely illustrative, and not limiting.
In this test method, 9 mL of the germicide to be tested is placed in a tube, put into a water bath and allowed to come to the desired temperature. One mL of the test organism, including at least 7 logs/mL of Mycobacterium terrae bacteria, is added to the 9 mL of the germicide to be tested. […] It will be appreciated by those skilled in the art that other concentrations may be utilized by proper dilution and accounting.
At appropriate time intervals, 1 mL aliquots of the germicide-cell suspension were removed and added directly into 9 mL of a 1% glycine solution (neutralizer) and mixed thoroughly to neutralize the germicide in the transferred suspension. The glycine solution was prepared from solid glycine, which is available from VWR Scientific Products, among others. The above-identified 10 mL neutralized solution was then poured through a membrane filter having an average pore size of 0.45 micrometers. The filter was then rinsed twice with at least 150 mL of the 1% glycine solution per rinse. The filter was then placed on an agar plate and incubated for twenty-one days at 37° C. In the above procedure, if dilution was needed, then the 1 mL germicidal-cell suspension was diluted in 99 mL of a phosphate buffer before addition to the 9 mL of the 1% glycine solution. The phosphate buffer was DiLu-LoK™ Butterfields Phosphate Buffer, available from Hardy Diagnostics, of Santa Maria, Calif.
The surviving colonies are then counted. The data is plotted as S/So vs. time. So is the initial count of the bacteria in the above 10 mL solution which is at least 10^6 bacteria/mL, and S is the surviving bacteria from the above filter on the agar plate. The results of the experiments were presented in terms of log reductions. Log reduction is the difference between log(So) and log(S). As one example, if log(So)=6.2, and if there were 100 survivors, then the log(S)=2, and the log reduction was reported as 4.2.

solubility in water = format: physicochemical

4-pyridinyl-propanedial
Log Reductions/mL ([1]; Saturated (˜2.3% w/v), 5 min, 20° C.): 4.0 log reductions/mL

O=CC(c1ccccc1)C(O)S(=O)(=O)[O-].[Na+] (stereo not shown) [1-hydroxy-3-oxo-2-phenyl-propane-1-sulfonic acid, sodium salt]
Log Reductions/mL ([1]; 0.6%, 20° C., 60 min): Total Kill | log reduction at 0.6 % ([1]; Mycolicibacter terrae, 5 min, 0.6%, 20° C., 5 min, read-out: Log Reductions/mL): 2.1 | log reduction at 0.6 % ([1]; Mycolicibacter terrae, 20 min, 0.6%, 20° C., 20 min, read-out: Log Reductions/mL): 2.5 | log reduction at 0.6 % ([1]; Mycolicibacter terrae, 25 min, 0.6%, 20° C., 25 min, read-out: Log Reductions/mL): 2.9

O=CC(C=O)c1cccc(C(=O)O)c1[N+](=O)[O-] [3-(1-formyl-2-oxoethyl)-2-nitro-benzoic acid]
log reduction at 2.1 % ([1]; Mycolicibacter terrae, 5 min, Saturated (˜2.1% w/v), 5 min, 20° C., read-out: Log Reductions/mL): 4

O=Cc1ccc(Br)cc1C=O [4-bromo-phthalaldehyde]
Log Reductions/mL ([1]; 0.1%, 20° C., 30 minutes exposure): Total Kill | time to achieve a total kill of the bacteria ([1]; about 0.1%, 20° C.): 10 to 30 min

O=Cc1ccc(Cl)cc1C=O [4-chloro-phthalaldehyde]
Log Reductions/mL ([1]; 2.7 w/v % (in 20% isopropanol), 20° C., 5 min): Total Kill | concentration effective to achieve a total kill of all bacteria ([1]; in five minutes, 20° C.): 0.2 to 2.7%

O=Cc1ccc(F)cc1C=O [4-fluoro-phthalaldehyde]
Log Reductions/mL ([1]; 0.25%, 20° C., 60 minutes exposure): Total Kill | time to achieve a total kill of the bacteria ([1]; about 0.25%, 20° C.): 30 to 60 min

O=Cc1ccccc1C(O)S(=O)(=O)[O-].[Na+] (stereo not shown) [(2-formyl-phenyl)-hydroxy-methane sulfonic acid, sodium salt]
Log Reductions/mL ([1]; 9.1%, 20° C., 5 min): Confluent

O=Cc1cccc(C=O)c1 [IPA, isophthalaldehyde, reference compound]
Log Reductions/mL ([1]; 0.3%, dissolved in 20% isopropanol, 20° C., 5 min (Table 11)): Confluent | Log Reductions/mL ([1]; 0.3%, dissolved in 20% isopropanol, 20° C., 5 min (Table 15)): Confluent | Germicidal Efficacy [1]: Poor

O=Cc1ccccc1C=O [OPA, phthalaldehyde, reference compound]
log reduction at 0.14 % ([1]; Mycolicibacter terrae, 5 min, 0.14%, 20° C., 5 min, read-out: Log Reductions/mL): 4.8 | log reduction at 0.28 % ([1]; Mycolicibacter terrae, 5 min, 0.28%, 20° C., 5 min, read-out: Log Reductions/mL): 5.5 | Germicidal Efficacy [1]: Good | solubility in water (solubility in water): about 5 % by weight

O=Cc1ccc(C=O)cc1 [TPA, terephthalaldehyde, reference compound]
Log Reductions/mL ([1]; 0.2%, dissolved in 20% isopropanol, 20° C., 5 min): Confluent | Germicidal Efficacy [1]: Poor

O=CC(C=O)c1ccccc1 [phenyl-propanedial]
Log Reductions/mL ([1]; 0.4%, 20° C., 60 min): Total Kill | Log Reductions/mL ([1]; 0.44%, 20° C., 60 min): Total Kill | Log Reductions/mL ([1]; 0.66%, 20° C., 15 min): Total Kill | Log Reductions/mL ([1]; 0.7%, 20° C., 15 min): Total Kill | Log Reductions/mL ([1]; (˜1%), 20° C., 5 min): 4.5 log reductions/mL | log reduction at 0.66 % ([1]; Mycolicibacter terrae, 5 min, 0.66%, 20° C., 5 min, read-out: Log Reductions/mL): < 2.5 | log reduction at 1 % ([1]; Mycolicibacter terrae, 5 min, ˜1%, 20° C., 5 min (Table 15), read-out: Log Reductions/mL): 4.5 | log reduction at 0.66 % ([1]; Mycolicibacter terrae, 10 min, 0.66%, 20° C., 10 min, read-out: Log Reductions/mL): 2.5 | log reduction at 0.7 % ([1]; Mycolicibacter terrae, 10 min, 0.7%, 20° C., 10 min, read-out: Log Reductions/mL): 2.5 | log reduction at 0.3 % ([1]; Mycolicibacter terrae, 0.5 h, 0.3%, 20° C., 30 min, read-out: Log Reductions/mL): 2.1 | log reduction at 0.33 % ([1]; Mycolicibacter terrae, 0.5 h, 0.33%, 20° C., 30 min, read-out: Log Reductions/mL): 2.1 | log reduction at 0.4 % ([1]; Mycolicibacter terrae, 0.5 h, 0.4%, 20° C., 30 min, read-out: Log Reductions/mL): 2.5 | log reduction at 0.44 % ([1]; Mycolicibacter terrae, 0.5 h, 0.44%, 20° C., 30 min, read-out: Log Reductions/mL): 2.5 | log reduction at 0.2 % ([1]; Mycolicibacter terrae, 1 h, 0.2%, 20° C., 60 min, read-out: Log Reductions/mL): 2.1 | log reduction at 0.22 % ([1]; Mycolicibacter terrae, 1 h, 0.22%, 20° C., 60 min, read-out: Log Reductions/mL): 2.1 | concentration effective to achieve a total kill ([1]; within 15 minutes, 20° C.): 0.4 to 0.7% | concentration effective to achieve a total kill of the bacteria ([1]; within 60 minutes, 20° C.): 0.3 to 0.4% | solubility in water (solubility in water): about 1%
